≈ marks a conversion by molar mass, not a printed value. Where “and” joins values, the source holds several entries; their conditions need not be identical. Equal values may be shown once.
How the values were obtained:
[1] = mdck_mdr1
[2] = human; liver_microsomes
[3] = not given; remark: listed apart in the source
[4] = mouse; liver_microsomes

SMILES	solubility kinetic	Papp [1]	microsomal CLint [2]	logD [3]	microsomal CLint [4]
CC[C@H](Cc1nnn[nH]1)c1ccc(NC(=O)c2cc(Cl)cc(NC(=O)OCc3ccccc3)c2)cc1 (racemic)	60 µM (≈ 30.3 µg/mL)	2.79 ×10⁻⁶ cm/s	24.9 µL/min/mg	4.1	–
N#Cc1cccc(-c2nc3c(C(=O)Nc4ccc5c(c4)CNC5)cc(F)cc3[nH]2)c1	3 µM (≈ 1.19 µg/mL)	–	–	2	22 µL/min/mg
CCOc1cccc(-c2ccc(S(=O)(=O)Nc3ccc(Cl)cc3C(=O)O)cc2)c1	392 µM (≈ 169 µg/mL)	6.22 ×10⁻⁶ cm/s	119 µL/min/mg	2.8	–
NCc1cccc(NC(=O)c2cc(Cl)cc(CN)c2)c1	375 µM (≈ 109 µg/mL)	1.96 ×10⁻⁶ cm/s	21 µL/min/mg	-0.6	–
CC(C)NC(=O)[C@H](Nc1ccc2c(c1)CNC2)c1cc(Cl)cc2[nH]c(-c3ccccc3)nc12 (single isomer, unassigned)	134 µM (≈ 61.6 µg/mL)	0.2 ×10⁻⁶ cm/s	–	2.8	11 µL/min/mg
CNC(=O)c1c[nH]c2ncnc(N[C@H](c3ccc4c(c3)S(=O)(=O)CCC4)C(C)C)c12 (single isomer, unassigned)	336 µM and 204 µM	1.61 ×10⁻⁶ cm/s and 0.857 ×10⁻⁶ cm/s	258 µL/min/mg and 108 µL/min/mg	2.7 and 2.6	–
CNC(=O)[C@H](Nc1cc(Cl)cc(NC(=O)OCc2ccccc2)c1)c1cccc(-c2nn[nH]n2)c1 (racemic)	333 µM (≈ 164 µg/mL)	1.39 ×10⁻⁶ cm/s	21.3 µL/min/mg	2.2	–
O=C(Nc1cc(Cl)cc(C(=O)Nc2cccc(-n3nn[nH]c3=O)c2)c1)OCc1ccccc1	107 µM (≈ 49.7 µg/mL)	9.46 ×10⁻⁶ cm/s	11.2 µL/min/mg	3.8	–
CCNC(=O)c1cc2c(N[C@H](c3ccc4c(c3)S(=O)(=O)CCC4)C(C)C)ncnc2[nH]1 (single isomer, unassigned)	337 µM and 316 µM	0.717 ×10⁻⁶ cm/s and 0.532 ×10⁻⁶ cm/s	–	2.7 and 2.8	64 µL/min/mg and 54 µL/min/mg
O=C(Nc1ccc2c(c1)CNC2)c1cc(F)cc2c1CCC2	187 µM (≈ 55.4 µg/mL)	10.7 ×10⁻⁶ cm/s	–	1.2	37.4 µL/min/mg
CC(C)NC(=O)[C@H](Nc1ccc2c(c1)CNC2)c1cc(Cl)cc2[nH]c(-c3ccccc3)nc12 (racemic)	154 µM (≈ 70.8 µg/mL)	0.432 ×10⁻⁶ cm/s	23.2 µL/min/mg	2.9	–
O=C(Nc1ccc2c(c1)CNC2)c1cc(F)cc2[nH]c(-c3ccc(F)cc3)nc12	6 µM (≈ 2.34 µg/mL)	0.1 ×10⁻⁶ cm/s	–	2.9	36.8 µL/min/mg
CNC(=O)c1cc2c(N[C@H](c3ccc4c(c3)S(=O)(=O)CCC4)C(C)C)ncnc2[nH]1 (single isomer, unassigned)	374 µM and 397 µM	0.891 ×10⁻⁶ cm/s and 0.377 ×10⁻⁶ cm/s	–	2.3 and 2.4	47 µL/min/mg and 23 µL/min/mg
CNC(=O)c1cccc(-c2cc3c(N[C@H](c4ccc5c(c4)S(=O)(=O)CCC5)C(C)C)ncnc3[nH]2)c1 (single isomer, unassigned)	13 µM and 15 µM	0.502 ×10⁻⁶ cm/s and 0.627 ×10⁻⁶ cm/s	746 µL/min/mg and 455 µL/min/mg	3.8 and 3.7	–
CC(C)[C@H](Nc1ncnc2[nH]ccc12)c1ccc2c(c1)S(=O)(=O)CCC2 (single isomer, unassigned)	374 µM and 386 µM	5.5 ×10⁻⁶ cm/s and 3.55 ×10⁻⁶ cm/s	57 µL/min/mg and 21 µL/min/mg	2.7 and 2.5	–
N#C[C@H](Nc1cccc(-c2nn[nH]n2)c1)c1cc(Cl)cc(NC(=O)OCc2ccccc2)c1 (racemic)	344 µM (≈ 158 µg/mL)	3.23 ×10⁻⁶ cm/s	13.6 µL/min/mg	3.2	–
CC(C)[C@H](Nc1ncnc2[nH]c(-c3cnn(CC(=O)N(C)C)c3)cc12)c1ccc2c(c1)OCCO2 (single isomer, unassigned)	–	2.05 ×10⁻⁶ cm/s and 1.62 ×10⁻⁶ cm/s	–	2.9 and 3	35 µL/min/mg and 45 µL/min/mg
CC(C)[C@H](Nc1ncnc2[nH]c(-c3cnn(CC(N)=O)c3)cc12)c1ccc2c(c1)OCCO2 (single isomer, unassigned)	280 µM and 332 µM	1.09 ×10⁻⁶ cm/s and 1.87 ×10⁻⁶ cm/s	–	2.9	16 µL/min/mg and 42 µL/min/mg
CC(C)[C@H](Nc1ncnc2[nH]ccc12)c1ccc2c(c1)NC(=O)CO2 (single isomer, unassigned)	371 µM and 374 µM	3.4 ×10⁻⁶ cm/s and 8.7 ×10⁻⁶ cm/s	–	1.8 and 2.2	37 µL/min/mg and 80 µL/min/mg
COc1cc(-c2cc(NC(=O)c3cc(F)cc4[nH]ncc34)cc3c2CNC3)ccn1	180 µM (≈ 72.6 µg/mL)	0.788 ×10⁻⁶ cm/s	–	2	260 µL/min/mg
O=C(Nc1cc(Cl)cc(C(=O)Nc2ccc3c(c2)CNC3)c1)OCc1ccccc1	35 µM (≈ 14.8 µg/mL)	1.25 ×10⁻⁶ cm/s	12.7 µL/min/mg	2.8	–
NCc1cccc(NC(=O)c2cc(OCc3ccccc3)ccc2CNC(=O)OCc2ccccc2)c1	14 µM (≈ 6.94 µg/mL)	1.75 ×10⁻⁶ cm/s	21 µL/min/mg	2.8	–
Cn1c(=O)[nH]c2c(C(=O)Nc3ccc4c(c3)CNC4)cc(Br)cc21	161 µM (≈ 62.3 µg/mL)	0.805 ×10⁻⁶ cm/s	–	0.5	12.5 µL/min/mg
O=C(Nc1ccc2c(c1)CNC2)c1cc(Cl)cc2ccncc12	181 µM (≈ 58.6 µg/mL)	3.42 ×10⁻⁶ cm/s	–	0.6	24.5 µL/min/mg
O=C(O)c1cc(Cl)ccc1S(=O)(=O)NC1CCN(c2nc(C3CC3)cc(C(F)(F)F)n2)CC1	380 µM (≈ 192 µg/mL)	3.65 ×10⁻⁶ cm/s	26.3 µL/min/mg	2.8	–
NCc1cccc(NC(=O)C[C@H](NC(=O)OCc2ccccc2)c2ccc(OCc3ccccc3)cc2)c1 (racemic)	17 µM (≈ 8.66 µg/mL)	1.04 ×10⁻⁶ cm/s	17 µL/min/mg	–	–

SMILES	solubility kinetic	Papp [1]	microsomal CLint [2]	logD [3]	microsomal CLint [4]
O=C(Nc1cc2c(cc1C1CC1)CNC2)c1cc(F)cc2[nH]ncc12	189 µM (≈ 63.6 µg/mL)	3.41 ×10⁻⁶ cm/s	–	0.7	86.8 µL/min/mg
O=C(Nc1cc2c(c(C3=CCOCC3)c1)CNC2)c1cc(F)cc2[nH]ncc12	157 µM (≈ 59.4 µg/mL)	1.1 ×10⁻⁶ cm/s	–	0.9	152 µL/min/mg
NCCc1ccc(NC(=O)c2cc(Cl)cc(NC(=O)OCc3ccccc3)c2)cc1	88 µM (≈ 37.3 µg/mL)	0.791 ×10⁻⁶ cm/s	17.5 µL/min/mg	2.9	–
N#C[C@H](Nc1cccc(C(=O)O)c1)c1cc(Cl)cc2[nH]ncc12 (racemic)	112 µM (≈ 36.6 µg/mL)	1.22 ×10⁻⁶ cm/s	12 µL/min/mg	0.6	–
N#C[C@H](Nc1ccc2c(c1)CNC2)c1cc(Cl)cc2[nH]ncc12 (racemic)	297 µM (≈ 96.2 µg/mL)	1.1 ×10⁻⁶ cm/s	10.3 µL/min/mg	0.9	–
CCNC(=O)c1cc2c(N[C@H](c3ccc4c(c3)OCCO4)C(C)C)ncnc2[nH]1 (single isomer, unassigned)	–	2.7 ×10⁻⁶ cm/s and 2.9 ×10⁻⁶ cm/s	–	3.6	48 µL/min/mg and 72 µL/min/mg
O=C(Nc1ccc2c(c1)CNC2)c1cc(Cl)cc2[nH]ncc12	279 µM (≈ 87.3 µg/mL)	1.8 ×10⁻⁶ cm/s	–	0.9	243 µL/min/mg
c1ccc2sc(C3CCN(Cc4c[nH]c5ccccc45)CC3)nc2c1	119 µM (≈ 41.4 µg/mL)	5.82 ×10⁻⁶ cm/s	38.1 µL/min/mg	–	–
COc1ccc([C@H](Cc2nnn[nH]2)NC(=O)c2ncnc3[nH]ccc23)cc1 (racemic)	395 µM (≈ 144 µg/mL)	1.39 ×10⁻⁶ cm/s	5 µL/min/mg	-0.1	–
Cc1cc(OCc2ccccc2)ccc1NS(=O)(=O)c1ccc(Cl)cc1C(=O)O	394 µM (≈ 170 µg/mL)	4.61 ×10⁻⁶ cm/s	22.3 µL/min/mg	2.7	–
O=C(O)c1cc(Cl)c(F)cc1S(=O)(=O)Nc1ccc(Oc2ccccc2Cl)cc1	396 µM (≈ 181 µg/mL)	4.29 ×10⁻⁶ cm/s	67.4 µL/min/mg	3.3	–
NCc1cccc(NC(=O)C[C@H](NC(=O)OCc2ccccc2)c2ccc(OCc3ccccc3)c(Br)c2)c1 (racemic)	21 µM (≈ 12.4 µg/mL)	0.783 ×10⁻⁶ cm/s	12.4 µL/min/mg	–	–
Cn1cc2c(C(=O)Nc3ccc4c(c3)CNC4)cc(F)cc2n1	309 µM (≈ 95.9 µg/mL)	3.4 ×10⁻⁶ cm/s	–	0.2	18.2 µL/min/mg
O=C(O)c1cc(Cl)ccc1NS(=O)(=O)c1ccc(-c2ccccc2Cl)cc1	397 µM (≈ 168 µg/mL)	7.59 ×10⁻⁶ cm/s	343 µL/min/mg	3.6	–
C=CC[C@H](Nc1cccc(-c2nn[nH]n2)c1)c1cc(Cl)cc(NC(=O)OCc2ccccc2)c1 (racemic)	332 µM (≈ 158 µg/mL)	1.24 ×10⁻⁶ cm/s	65.5 µL/min/mg	4.1	–
O=C(Nc1ccc2c(c1)CNC2)c1cc(Cl)cc2c1cnn2C1CCC1	172 µM (≈ 63.1 µg/mL)	1 ×10⁻⁶ cm/s	–	2	13.4 µL/min/mg
O=C(Nc1ccc2c(c1)CNC2)c1cc(Cl)cc2cn[nH]c12	184 µM (≈ 57.5 µg/mL)	4.63 ×10⁻⁶ cm/s	–	1.2	54 µL/min/mg
O=C(Nc1ccc2c(c1)CNC2)c1cc(F)cc2[nH]ncc12	–	1.59 ×10⁻⁶ cm/s	–	–	180 µL/min/mg
O=C(Nc1cc2c(c(C3=CCS(=O)(=O)CC3)c1)CNC2)c1cc(F)cc2[nH]ncc12	141 µM (≈ 60.1 µg/mL)	1.3 ×10⁻⁶ cm/s	–	-0.1	96.9 µL/min/mg
O=C(N[C@H]1[C@H]2CCCCC[C@H]2[C@H]1C(=O)Nc1cccc(C2CCNCC2)c1)OCc1ccccc1 (racemic)	49 µM (≈ 23.3 µg/mL)	0.395 ×10⁻⁶ cm/s	31.3 µL/min/mg	2.8	–
Nc1nc(-c2ccccc2)nc2[nH]nc(Nc3ccc(C(F)(F)F)cc3)c12	2 µM (≈ 0.741 µg/mL)	1.76 ×10⁻⁶ cm/s	–	–	11.2 µL/min/mg
O=C(Nc1cc2c(c(-c3c[nH]c(=O)c(F)c3)c1)CNC2)c1cc(F)cc2[nH]ncc12	66 µM (≈ 26.9 µg/mL)	0.651 ×10⁻⁶ cm/s	–	0.4	243 µL/min/mg
NCc1cccc(NC(=O)CN(C(=O)OCc2ccccc2)c2ccc(OCc3ccccc3)cc2)c1	56 µM (≈ 27.8 µg/mL)	0.899 ×10⁻⁶ cm/s	11 µL/min/mg	2.9	–
Cc1c(C(=O)Nc2cc(-c3cccnc3)ccn2)cc(C2CC2)n1C	176 µM (≈ 58.5 µg/mL)	13.5 ×10⁻⁶ cm/s	–	–	388 µL/min/mg
CC(C)[C@H](Nc1ncnc2[nH]c(C(=O)N[C@H]3CCN(C)C3)cc12)c1ccc2c(c1)S(=O)(=O)CCC2 (single isomer, unassigned)	396 µM and 392 µM	0.175 ×10⁻⁶ cm/s and 0.325 ×10⁻⁶ cm/s	11 µL/min/mg and 26 µL/min/mg	1.4 and 1.5	–

— the ASAP Discovery antiviral challenge data (2025)
